From ChEMBL document CHEMBL1135290, “Synthesis of sub-micromolar inhibitors of MraY by exploring the region originally occupied by the diazepanone ring in the liposidomycin structure” (Bioorg Med Chem Lett, 2002)

Tested on: Enterococcus faecium
Test: Tested in vitro for antibacterial activity against Enterococcus faecium using micro-broth dilution method
Format: functional

| MIC [µg/mL] | SMILES |
| --- | --- |
| 10 | CCCCCCCCCCCCCCNC[C@H](O[C@@H]1O[C@H](CN)[C@@H](O)[C@H]1O)[C@@H]1C[C@@H](O)[C@H](n2ccc(=O)[nH]c2=O)O1.O=C(O)C(F)(F)F |

Tested on: Escherichia coli
Test: Tested in vitro for antibacterial activity against Escherichia coli using micro-broth dilution method
Format: functional

| MIC [µg/mL] | SMILES |
| --- | --- |
| 2.5 | CCCCCCCCCCCCCCNC[C@H](O[C@@H]1O[C@H](CN)[C@@H](O)[C@H]1O)[C@@H]1C[C@@H](O)[C@H](n2ccc(=O)[nH]c2=O)O1.O=C(O)C(F)(F)F |

Tested on: Staphylococcus aureus
Test: Tested in vitro for antibacterial activity against Staphylococcus aureus using micro-broth dilution method
Format: functional

| MIC [µg/mL] | SMILES |
| --- | --- |
| 2.5 | CCCCCCCCCCCCCCNC[C@H](O[C@@H]1O[C@H](CN)[C@@H](O)[C@H]1O)[C@@H]1C[C@@H](O)[C@H](n2ccc(=O)[nH]c2=O)O1.O=C(O)C(F)(F)F |

Tested on: Streptococcus pyogenes
Test: Tested in vitro for antibacterial activity against Streptococcus pyogenes using micro-broth dilution method
Format: functional

| MIC [µg/mL] | SMILES |
| --- | --- |
| 2.5 | CCCCCCCCCCCCCCNC[C@H](O[C@@H]1O[C@H](CN)[C@@H](O)[C@H]1O)[C@@H]1C[C@@H](O)[C@H](n2ccc(=O)[nH]c2=O)O1.O=C(O)C(F)(F)F |

Target: not listed separately
Test: Inhibitory activity against Translocase I

| SMILES | IC50 [nM] |
| --- | --- |
| NC[C@H]1O[C@@H](O[C@@H](CNCc2cccnc2)[C@@H]2C[C@@H](O)[C@H](n3ccc(=O)[nH]c3=O)O2)[C@H](O)[C@@H]1O | 4800 |
| NC[C@H]1O[C@@H](O[C@@H](CNCc2ccc(SC(F)(F)F)cc2)[C@@H]2C[C@@H](O)[C@H](n3ccc(=O)[nH]c3=O)O2)[C@H](O)[C@@H]1O | 310 |
| NC[C@H]1O[C@@H](O[C@@H](CNC(=O)c2ccc(OCc3ccccc3)cc2)[C@@H]2C[C@@H](O)[C@H](n3ccc(=O)[nH]c3=O)O2)[C@H](O)[C@@H]1O | 320 |
| CN(Cc1ccccc1)C[C@H](O[C@@H]1O[C@H](CN)[C@@H](O)[C@H]1O)[C@@H]1C[C@@H](O)[C@H](n2ccc(=O)[nH]c2=O)O1 | 6900 |
| CN1CCCC1CNC[C@H](O[C@@H]1O[C@H](CN)[C@@H](O)[C@H]1O)[C@@H]1C[C@@H](O)[C@H](n2ccc(=O)[nH]c2=O)O1 (some centres not stated) | 1300 |
| NC[C@H]1O[C@@H](O[C@@H](CN2CCCCC2)[C@@H]2C[C@@H](O)[C@H](n3ccc(=O)[nH]c3=O)O2)[C@H](O)[C@@H]1O | 5900 |
| NC[C@H]1O[C@@H](O[C@@H](CNC(=O)Cc2ccc(-c3ccccc3)cc2)[C@@H]2C[C@@H](O)[C@H](n3ccc(=O)[nH]c3=O)O2)[C@H](O)[C@@H]1O | 430 |
| CC(C)c1ccc(C(=O)NC[C@H](O[C@@H]2O[C@H](CN)[C@@H](O)[C@H]2O)[C@@H]2C[C@@H](O)[C@H](n3ccc(=O)[nH]c3=O)O2)cc1 | 400 |
| NC[C@H]1O[C@@H](O[C@@H](CNCc2ccc(OC(F)(F)F)cc2)[C@@H]2C[C@@H](O)[C@H](n3ccc(=O)[nH]c3=O)O2)[C@H](O)[C@@H]1O | 300 |
| COC(=O)c1ccc(CNC[C@H](O[C@@H]2O[C@H](CN)[C@@H](O)[C@H]2O)[C@@H]2C[C@@H](O)[C@H](n3ccc(=O)[nH]c3=O)O2)cc1 | 1200 |
| NC[C@H]1O[C@@H](O[C@@H](CNC(=O)c2cccc(OC(F)(F)F)c2)[C@@H]2C[C@@H](O)[C@H](n3ccc(=O)[nH]c3=O)O2)[C@H](O)[C@@H]1O | 1000 |
| NC[C@H]1O[C@@H](O[C@@H](CNCc2cccs2)[C@@H]2C[C@@H](O)[C@H](n3ccc(=O)[nH]c3=O)O2)[C@H](O)[C@@H]1O | 2300 |
| NC[C@H]1O[C@@H](O[C@@H](CO)[C@H]2O[C@@H](n3ccc(=O)[nH]c3=O)[C@H](O)[C@@H]2O)[C@H](O)[C@@H]1O | 5000 |
| NC[C@H]1O[C@@H](O[C@@H](CNCCc2ccc(Oc3ccccc3)cc2)[C@@H]2C[C@@H](O)[C@H](n3ccc(=O)[nH]c3=O)O2)[C@H](O)[C@@H]1O | 310 |
| CCN(CC)CCN1CCN(C[C@H](O[C@@H]2O[C@H](CN)[C@@H](O)[C@H]2O)[C@@H]2C[C@@H](O)[C@H](n3ccc(=O)[nH]c3=O)O2)CC1 | 1800 |
| NC[C@H]1O[C@@H](O[C@@H](CNC(=O)c2cccc(Oc3ccccc3)c2)[C@@H]2C[C@@H](O)[C@H](n3ccc(=O)[nH]c3=O)O2)[C@H](O)[C@@H]1O | 440 |
| Cc1ccc(CCNC[C@H](O[C@@H]2O[C@H](CN)[C@@H](O)[C@H]2O)[C@@H]2C[C@@H](O)[C@H](n3ccc(=O)[nH]c3=O)O2)cc1 | 610 |
| NC[C@H]1O[C@@H](O[C@@H](CNC(=O)Nc2ccc(C3CCCCC3)cc2)[C@@H]2C[C@@H](O)[C@H](n3ccc(=O)[nH]c3=O)O2)[C@H](O)[C@@H]1O | 160 |

| SMILES | IC50 [nM] |
| --- | --- |
| NC[C@H]1O[C@@H](O[C@@H](CNCCc2ccccc2)[C@@H]2C[C@@H](O)[C@H](n3ccc(=O)[nH]c3=O)O2)[C@H](O)[C@@H]1O | 1600 |
| NC[C@H]1O[C@@H](O[C@@H](CNCCc2c[nH]c3ccccc23)[C@@H]2C[C@@H](O)[C@H](n3ccc(=O)[nH]c3=O)O2)[C@H](O)[C@@H]1O | 2900 |
| CCCCCCCCCCCCCCNC[C@H](O[C@@H]1O[C@H](CN)[C@@H](O)[C@H]1O)[C@@H]1C[C@@H](O)[C@H](n2ccc(=O)[nH]c2=O)O1.O=C(O)C(F)(F)F | 590 |
| NC[C@H]1O[C@@H](O[C@@H](CNc2ccc(C3CCCCC3)cc2)[C@@H]2C[C@@H](O)[C@H](n3ccc(=O)[nH]c3=O)O2)[C@H](O)[C@@H]1O | 180 |
| NC[C@H]1O[C@@H](O[C@@H](CNc2ccc(Oc3ccccc3)cc2)[C@@H]2C[C@@H](O)[C@H](n3ccc(=O)[nH]c3=O)O2)[C@H](O)[C@@H]1O | 200 |
| NC[C@H]1O[C@@H](O[C@@H](CNCCc2ccc(Cl)cc2)[C@@H]2C[C@@H](O)[C@H](n3ccc(=O)[nH]c3=O)O2)[C@H](O)[C@@H]1O | 170 |
| NC[C@H]1O[C@@H](O[C@@H](CNC(=O)Nc2ccc(Oc3ccccc3)cc2)[C@@H]2C[C@@H](O)[C@H](n3ccc(=O)[nH]c3=O)O2)[C@H](O)[C@@H]1O | 140 |
| NC[C@H]1O[C@@H](O[C@@H](CNCc2ccncc2)[C@@H]2C[C@@H](O)[C@H](n3ccc(=O)[nH]c3=O)O2)[C@H](O)[C@@H]1O | 3400 |
| NC[C@H]1O[C@@H](O[C@@H](CNC(=O)c2ccc(Br)cc2)[C@@H]2C[C@@H](O)[C@H](n3ccc(=O)[nH]c3=O)O2)[C@H](O)[C@@H]1O | 440 |
| NC[C@H]1O[C@@H](O[C@@H](CNCCCn2ccnc2)[C@@H]2C[C@@H](O)[C@H](n3ccc(=O)[nH]c3=O)O2)[C@H](O)[C@@H]1O | 3800 |
| NC[C@H]1O[C@@H](O[C@@H](CN2CCC(Cc3ccccc3)CC2)[C@@H]2C[C@@H](O)[C@H](n3ccc(=O)[nH]c3=O)O2)[C@H](O)[C@@H]1O | 350 |
| NC[C@H]1O[C@@H](O[C@@H](CNCC2CCCO2)[C@@H]2C[C@@H](O)[C@H](n3ccc(=O)[nH]c3=O)O2)[C@H](O)[C@@H]1O (some centres not stated) | 9200 |
| CN1CCCC1CCNC[C@H](O[C@@H]1O[C@H](CN)[C@@H](O)[C@H]1O)[C@@H]1C[C@@H](O)[C@H](n2ccc(=O)[nH]c2=O)O1 (some centres not stated) | 3900 |
| NC[C@H]1O[C@@H](O[C@@H](CNCCc2ccncc2)[C@@H]2C[C@@H](O)[C@H](n3ccc(=O)[nH]c3=O)O2)[C@H](O)[C@@H]1O | 4600 |
| CC(C)(C)c1ccc(CNC[C@H](O[C@@H]2O[C@H](CN)[C@@H](O)[C@H]2O)[C@@H]2C[C@@H](O)[C@H](n3ccc(=O)[nH]c3=O)O2)cc1 | 580 |
| CSCC[C@H](NC(=O)N[C@@H](Cc1cccc(O)c1)C(=O)O)C(=O)NC(C(=O)N/C=C1\C[C@@H](O)[C@H](n2ccc(=O)[nH]c2=O)O1)[C@H](C)N(C)C(=O)[C@@H](N)Cc1cccc(O)c1 (some centres not stated) | 65 |
| COc1ccc(CNC[C@H](O[C@@H]2O[C@H](CN)[C@@H](O)[C@H]2O)[C@@H]2C[C@@H](O)[C@H](n3ccc(=O)[nH]c3=O)O2)cc1OC | 4000 |
| CC(=O)N[C@H]1[C@@H](O[C@@H]2O[C@H](CC(O)[C@H]3O[C@@H](n4ccc(=O)[nH]c4=O)[C@H](O)[C@@H]3O)[C@H](O)[C@H](O)[C@H]2NC(=O)/C=C/CC(C)C)O[C@H](CO)[C@@H](N)[C@@H]1O (some centres not stated) [TUNICAMYCIN] | 480 |

Further lines, results first:

| IC50 [nM] | SMILES |
| --- | --- |
| 230 | CCCCCCCCCCCCN(C)C[C@H](O[C@@H]1O[C@H](CN)[C@@H](O)[C@H]1O)[C@@H]1C[C@@H](O)[C@H](n2ccc(=O)[nH]c2=O)O1 |
| 14000 | NC[C@H]1O[C@@H](O[C@@H](CNC(=O)c2ccccc2)[C@@H]2C[C@@H](O)[C@H](n3ccc(=O)[nH]c3=O)O2)[C@H](O)[C@@H]1O |
| 220 | NC[C@H]1O[C@@H](O[C@@H](CNCCc2cccc(C(F)(F)F)c2)[C@@H]2C[C@@H](O)[C@H](n3ccc(=O)[nH]c3=O)O2)[C@H](O)[C@@H]1O |
| 2800 | NC[C@H]1O[C@@H](O[C@@H](CNCC2COc3ccccc3O2)[C@@H]2C[C@@H](O)[C@H](n3ccc(=O)[nH]c3=O)O2)[C@H](O)[C@@H]1O (some centres not stated) |
| 390 | NC[C@H]1O[C@@H](O[C@@H](CNC(=O)c2ccc(C3CCCCC3)cc2)[C@@H]2C[C@@H](O)[C@H](n3ccc(=O)[nH]c3=O)O2)[C@H](O)[C@@H]1O |
| 4400 | COC(=O)C1CCN(C[C@H](O[C@@H]2O[C@H](CN)[C@@H](O)[C@H]2O)[C@@H]2C[C@@H](O)[C@H](n3ccc(=O)[nH]c3=O)O2)CC1 |
| 50000 | NC[C@H]1O[C@@H](OC[C@H]2O[C@@H](n3ccc(=O)[nH]c3=O)[C@H](O)[C@@H]2O)[C@H](O)[C@@H]1O |
| 250 | NC[C@H]1O[C@@H](O[C@@H](CNC(=O)c2ccc(-c3ccccc3)cc2)[C@@H]2C[C@@H](O)[C@H](n3ccc(=O)[nH]c3=O)O2)[C@H](O)[C@@H]1O |
| 200 | NC[C@H]1O[C@@H](O[C@@H](CNC(=O)c2ccc(Oc3ccccc3)cc2)[C@@H]2C[C@@H](O)[C@H](n3ccc(=O)[nH]c3=O)O2)[C@H](O)[C@@H]1O |
| 6500 | NC[C@H]1O[C@@H](O[C@@H](CNCc2ccc(C(=O)O)cc2)[C@@H]2C[C@@H](O)[C@H](n3ccc(=O)[nH]c3=O)O2)[C@H](O)[C@@H]1O |
| 3800 | NC[C@H]1O[C@@H](O[C@@H](CNCCCN2CCOCC2)[C@@H]2C[C@@H](O)[C@H](n3ccc(=O)[nH]c3=O)O2)[C@H](O)[C@@H]1O |
| 170 | CN(Cc1ccc(-c2ccccc2)cc1)C[C@H](O[C@@H]1O[C@H](CN)[C@@H](O)[C@H]1O)[C@@H]1C[C@@H](O)[C@H](n2ccc(=O)[nH]c2=O)O1 |
| 7000 | NC[C@H]1O[C@@H](O[C@@H](CNCCCN2CCCC2=O)[C@@H]2C[C@@H](O)[C@H](n3ccc(=O)[nH]c3=O)O2)[C@H](O)[C@@H]1O |
| 740 | CCCCCCCNC[C@H](O[C@@H]1O[C@H](CN)[C@@H](O)[C@H]1O)[C@@H]1C[C@@H](O)[C@H](n2ccc(=O)[nH]c2=O)O1 |
| 1400 | COc1ccc(CN(C)C[C@H](O[C@@H]2O[C@H](CN)[C@@H](O)[C@H]2O)[C@@H]2C[C@@H](O)[C@H](n3ccc(=O)[nH]c3=O)O2)cc1 |
| 9700 | CCCCCN(CCCCC)C[C@H](O[C@@H]1O[C@H](CN)[C@@H](O)[C@H]1O)[C@@H]1C[C@@H](O)[C@H](n2ccc(=O)[nH]c2=O)O1 |
| 1900 | NC[C@H]1O[C@@H](O[C@@H](CN2CCN(CC(=O)N3CCCC3)CC2)[C@@H]2C[C@@H](O)[C@H](n3ccc(=O)[nH]c3=O)O2)[C@H](O)[C@@H]1O |
